Measured values: publication PMC5913971, “A Novel Piperazine-Based Drug Lead for Cryptosporidiosis from the Medicines for Malaria Venture Open-Access Malaria Box” (Antimicrobial Agents and Chemotherapy, 2018)
In brackets after ≈: the same amount, converted by molar mass.

Assays:
C. parvum Iowa isolate = assay: Immunofluorescence assay for C. parvum growth inhibition in HCT-8 cells; type: cell-based, Cryptosporidium parvum; details: Cryptosporidium parvum, inside HCT-8 cells, 48 h incubation
C. hominis TU502 = assay: Cryptosporidium hominis growth inhibition assay (1,536-well); type: cell-based; details: HCT-8 cells, read-out: EC50 against C. hominis (isolate TU502)
Experimental: Cryptosporidium hominis growth inhibition assays were performed at the California Institute for Biomedical Research (Calibr), San Diego, CA, using a slightly modified immunofluorescence assay to enable automated compound handling and the use of 1,536-well microtiter plates ([19]). The HCT-8 culture medium was replaced with RPMI 1640 medium supplemented with 2% heat-inactivated horse serum, 100 U/ml penicillin, and […] streptomycin 24 h prior to infection with either C. hominis or the C. parvum Iowa isolate, used as a reference. […] Imaging was performed using a CellInsight CX5 High Content screening platform (Thermo Scientific) with a 10× objective and acquisition of one microscopic field per well. Images were processed using HCS Studio Scan software, and the selected-object count (HCT-8 cells) and spot count (C. hominis) were analyzed in Genedata Screener (version 13.0; Standard). Dose-response curves and EC values were calculated using the Smart Fit function of Genedata Analyzer.

C. parvum = assay: Parasite persistence (time-kill) assay in HCT-8 cells; type: cell-based, Cryptosporidium parvum
Experimental: Excysted C. parvum oocysts were added to >90% confluent HCT-8 cells in 384-well plates. […] At ∼24 h (i.e., the time of compound addition) and at various time intervals thereafter, parasites were washed, fixed, permeabilized, stained, and imaged as for the C. parvum growth assay. For the extended-compound-exposure experiments, the medium and compound were replaced every 3 days. A separate 384-well plate was used for each time interval. Parasite numbers were normalized to host cell nucleus numbers and are expressed as the percentage of parasites per host cell nucleus. In order to fit parasite decay curves, the effect of drugs was isolated from expected changes in parasite numbers over time by expressing the number of parasites as the percentage of the number of parasites with the control, dimethyl sulfoxide (DMSO), for each time point. Exponential decay curves were fit using GraphPad Prism software, version 6.01, and curve validity was assessed using the replicates test.

[1] = set-up: method as in PMID 27467575; details: single oral dose of 55 mg/kg; cited from earlier work
[2] = set-up: method as in PMID 27467575; details: mouse; cited from earlier work
[3] = tested on: cytochrome P450 (CYP) isoforms (1A2, 2C9, 2C19, 2D6, 3A4-M, and 3A4-T); set-up: method as in PMID 27467575; details: at 10 μM; cited from earlier work
[4] = set-up: method as in PMID 27467575; details: pH 7.4; cited from earlier work
hERG = tested on: hERG; set-up: method as in PMID 27467575; details: at 11 μM; cited from earlier work
zebrafish = tested on: zebrafish; set-up: method as in PMID 27467575; details: cited from earlier work
[5] = tested on: 11 species of bacteria, 12 protozoa, and 7 helminths; set-up: method as in PMID 27467575; details: cited from earlier work

SMILES: O=C(Nc1ccc(Cl)cc1)N1CCN(c2ccc3nncn3n2)CC1 [MMV665917, Clc1ccc(NC(=O)N2CCN(CC2)c3ccc4nncn4n3)cc1]
- EC50 (C. parvum Iowa isolate; Fig. 1, read-out: EC50, anti-C. parvum dose response): 2.1 µM
- EC90 (C. parvum Iowa isolate; Fig. 1B, read-out: EC90, anti-C. parvum dose response): 5.1 µM
- EC50 (C. hominis TU502): 4.05 µM
- concentration giving maximal rate of parasite elimination (C. parvum): 3 × EC90
- parasiticidal or parasitistatic for C. parvum (C. parvum): parasiticidal
- decay rate constant (r) (C. parvum; 3× EC90, one-phase exponential decay): 0.05346
- decay rate constant (r) (C. parvum; 12× EC90, one-phase exponential decay): 0.05864
- percentage of host cells infected, extended treatment (C. parvum; day 13 of treatment, 12 × EC90, medium and drug replaced every 3 days): ~0.1%
- plasma MMV665917 levels over time [1]: continued to increase for 9 h
- plasma protein binding [2]: 83.3%
- inhibition of six CYP isoforms [3]: low inhibition
- kinetic solubility [4]: 18 µM (≈ 6.44 µg/mL)
- hERG inhibition (hERG): 58%
- toxicity to zebrafish (zebrafish): not toxic
- activity in numerous biological assays (bacteria, protozoa, helminths) [5]: inactive
